“Also recorded” adds a separate entry of the source.

The experiment relates to healthy adult females. In words: CNV (contingent negative variation) brain wave measurement of sedative effect. The experiment is classed as in vivo, human. The note with it: 1 mass % solution in ethanol, inhaled from cotton pad below the nose; three to six healthy adult females; FIG. 1. The source says: Measured was fluctuation in the negative potential of the event-related potential, a type of brain wave, which is also called contingent negative variation (hereinafter, referred to as CNV). The fluctuation intensity of the earlier component of the CNV brain wave is reported to show a positive correlation with the level of consciousness such as attention or expectation, and thus, the CNV brain wave can be used for quantitative evaluation of the effect of a fragrance on the consciousness level (sedated/stimulated) (Torii S. et al., Contingent negative variation (CNV) and the psychological effects of odour. In Perfumery: The Psychology and Biology of Fragrance, Edited by Toller S. V. and Dodd G. H., pp. 107-120, Chapman and Hall, London (1998)).
In the present invention, electrodes were adhered to the […] (Cz) and the left ear (A1) of a subject, and the voltage between the electrodes was measured with an electroencephalograph. The subject was made to listen to a click sound via headphone and push a switch in hand in response to a light-emitting diode flashing few seconds after the click sound, and the CNV brain wave was determined during the operation. In the test with fragrance, a perfume composition was allowed to penetrate into a square cotton pad of approximately 0.5 0.5 cm in size; the cotton pad was placed below the nose; and the subject was allowed to inhale the fragrance together with normal breathing during the series of operations above. […] The CNV brain waves were measured 30 times with and without fragrance respectively, and the fragrance effect was evaluated by comparing the integrated values of the earlier component of the CNV brain wave 400 to 1,000 ms after the click.
o-dimethoxybenzene (o-DMB), m-dimethoxybenzene (m-DMB), and p-dimethoxybenzene (p-DMB) were dissolved respectively in ethanol, to give 1 mass % solutions, and the effect thereof on CNV was measured according to the test method as above. […]
In the case of `COc1cccc(OC)c1` [m-dimethoxybenzene], the “sedative effect (effect on CNV)” value is “favorable effect that leads the subject to sedative direction; also recorded: particularly favorable sedative effect”. Turning to `COc1ccccc1OC` [o-dimethoxybenzene], the “sedative effect (effect on CNV)” value is “favorable effect that leads the subject to sedative direction; also recorded: particularly favorable sedative effect”. As for `COc1ccc(OC)cc1` [p-dimethoxybenzene], the “sedative effect (effect on CNV)” value is recorded as “favorable effect that leads the subject to sedative direction”.

For the origin of these results see patent publication US20090069443A1, “Sedative Effect-Imparting Agent And Sedative Perfume Composition Containing The Same” (Shiseido Co., Ltd., priority 2005, published 2009).
